Measured values published in patent US20050209278A1, “Piperidinyl- and piperazinyl-sulfonylmethyl hydroxamic acids and their use as protease inhibitors” (priority 2002, published 2005).
Where a name gives a salt, the structure may show the parent alone. Read-outs that look alike come from different tables or passages of the source.

Experiments:
Format in all cases: biochemical
[1] = biological target: T1, MMP-1 (Homo sapiens, UniProt P03956); assay: MMP-1 inhibition (in vitro Ki)
T1 construct: made in house; host or cells: MMP-1-transfected HT-1080 cells (spent media)
T1 sequence (P03956 100-469): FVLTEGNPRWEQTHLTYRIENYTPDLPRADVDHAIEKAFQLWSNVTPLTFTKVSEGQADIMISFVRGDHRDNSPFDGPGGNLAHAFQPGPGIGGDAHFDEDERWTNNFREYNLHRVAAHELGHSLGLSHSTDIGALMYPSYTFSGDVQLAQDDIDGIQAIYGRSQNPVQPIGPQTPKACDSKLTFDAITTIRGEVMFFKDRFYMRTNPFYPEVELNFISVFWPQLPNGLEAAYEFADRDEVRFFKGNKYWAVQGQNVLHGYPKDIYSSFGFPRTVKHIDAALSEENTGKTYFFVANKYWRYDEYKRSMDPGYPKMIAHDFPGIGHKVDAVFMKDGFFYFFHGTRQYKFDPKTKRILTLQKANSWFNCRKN

[2] = biological target: T2, MMP-2 (Homo sapiens, UniProt P08253); assay: MMP-2 inhibition (in vitro Ki)
T2 construct: made in house; host or cells: MMP-2-transfected p2AHT2 cells
T2 sequence (P08253 110-660): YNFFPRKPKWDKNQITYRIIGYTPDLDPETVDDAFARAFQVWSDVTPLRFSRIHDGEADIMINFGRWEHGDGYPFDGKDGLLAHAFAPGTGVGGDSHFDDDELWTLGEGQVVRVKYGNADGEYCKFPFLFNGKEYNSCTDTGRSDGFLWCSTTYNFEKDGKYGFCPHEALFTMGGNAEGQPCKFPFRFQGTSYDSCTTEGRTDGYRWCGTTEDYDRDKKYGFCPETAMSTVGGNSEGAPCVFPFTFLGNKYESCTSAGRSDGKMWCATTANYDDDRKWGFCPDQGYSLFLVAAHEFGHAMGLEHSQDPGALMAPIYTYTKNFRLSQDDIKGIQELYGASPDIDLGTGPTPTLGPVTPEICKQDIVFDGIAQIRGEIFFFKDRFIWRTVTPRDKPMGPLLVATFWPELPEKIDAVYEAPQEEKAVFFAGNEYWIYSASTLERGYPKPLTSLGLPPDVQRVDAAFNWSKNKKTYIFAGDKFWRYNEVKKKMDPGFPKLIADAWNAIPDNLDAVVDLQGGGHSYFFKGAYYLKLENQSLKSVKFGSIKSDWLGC

[3] = biological target: T3, MMP-9 (Homo sapiens, UniProt P14780); assay: MMP-9 inhibition (in vitro Ki)
T3 construct: made in house; host or cells: MMP-9-transfected HT1080 cells (spent media)

[4] = biological target: T4, MMP-13 (Homo sapiens, UniProt P45452); assay: MMP-13 inhibition (in vitro Ki)
T4 construct: made in house; host or cells: baculovirus / insect cells

[5] = biological target: T5, MMP-14 (Homo sapiens, UniProt P50281); assay: MMP-14 inhibition (in vitro Ki)
T5 construct: The catalytic domain enzyme was expressed in E. coli inclusion bodies, solubilized in urea; made in house

[6] = Table 9, read-out: MMP-1 Ki (IC-50)
[7] = Table 9, read-out: MMP-2 Ki (IC-50)
[8] = Table 9, read-out: MMP-9 Ki (IC-50)
[9] = Table 9, read-out: MMP-13 Ki (IC-50)
[10] = Table 9, read-out: MMP-14 Ki (IC-50)

T3 sequence (P14780 107-707 limits assumed): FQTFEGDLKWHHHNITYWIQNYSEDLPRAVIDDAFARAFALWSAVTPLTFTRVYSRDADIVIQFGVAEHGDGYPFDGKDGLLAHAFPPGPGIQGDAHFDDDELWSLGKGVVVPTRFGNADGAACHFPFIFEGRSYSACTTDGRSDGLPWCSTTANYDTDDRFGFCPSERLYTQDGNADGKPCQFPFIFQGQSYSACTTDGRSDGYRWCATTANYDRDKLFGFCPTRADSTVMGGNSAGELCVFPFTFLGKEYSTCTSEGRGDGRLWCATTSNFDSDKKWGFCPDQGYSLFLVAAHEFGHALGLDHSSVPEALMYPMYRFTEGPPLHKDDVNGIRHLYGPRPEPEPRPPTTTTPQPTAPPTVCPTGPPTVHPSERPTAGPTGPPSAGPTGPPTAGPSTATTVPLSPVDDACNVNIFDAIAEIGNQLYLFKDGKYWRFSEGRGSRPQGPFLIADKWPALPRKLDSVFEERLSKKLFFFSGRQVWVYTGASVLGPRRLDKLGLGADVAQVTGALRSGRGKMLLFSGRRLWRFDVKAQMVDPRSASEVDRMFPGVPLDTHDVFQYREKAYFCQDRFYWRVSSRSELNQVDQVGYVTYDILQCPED

| SMILES | Ki ([1]; Table 8, read-out: MMP-1 Ki) | Ki ([2]; Table 8, read-out: MMP-2 Ki) | Ki ([3]; Table 8, read-out: MMP-9 Ki) | Ki ([4]; Table 8, read-out: MMP-13 Ki) | Ki ([5]; Table 8, read-out: MMP-14 Ki) | Ki [1, 6] | Ki [2, 7] | Ki [3, 8] | Ki [4, 9] | Ki [5, 10] |
| --- | --- | --- | --- | --- | --- | --- | --- | --- | --- | --- |
| COCCC(CCOC)(C(=O)NO)S(=O)(=O)N1CCC(c2ccc(CCC(F)(F)C(F)(F)F)cn2)CC1 [Example A61, N-hydroxy-4-methoxy-2-(2-methoxyethyl)-2-({4-[5-(3,3,4,4,4-pentafluorobutyl)pyridin-2-yl]piperidin-1-yl}sulfonyl)butanamide Hydrochloride] | 3530 nM | 0.98 nM | 0.38 nM | 0.16 nM | 4170 nM |  |  |  |  |  |
| O=C(NO)C1(S(=O)(=O)N2CCN(c3ccc(CCCC(F)(F)F)c(F)c3)CC2)CCN(C2CC2)CC1 [Example A62, 1-cyclopropyl-4-({4-[3-fluoro-4-(4,4,4-trifluorobutyl)phenyl]piperazin-1-yl}sulfonyl)-N-hydroxypiperidine-4-carboxamide Hydrochloride] | > 10000 nM | 0.73 nM | 1.74 nM | 0.56 nM | 9050 nM |  |  |  |  |  |
| CC(F)(F)CCc1ccc(C2CCN(S(=O)(=O)C3(C(=O)NO)CCOCC3)CC2)nc1 [Example A63, 4-({4-[5-(3,3-difluorobutyl)pyridin-2-yl]piperidin-1-yl}sulfonyl)-N-hydroxytetrahydro-2H-pyran-4-carboxamide Hydrochloride] | 4370 nM | 0.5 nM | 0.22 nM | 0.39 nM | 1840 nM |  |  |  |  |  |
| O=C(NO)C1(S(=O)(=O)N2CCC(CCCCc3nc(-c4ccc(OC(F)(F)F)cc4)no3)CC2)CCOCC1 [Example A64, N-hydroxy-4-{[4-(4-{3-[4-(trifluoromethoxy)phenyl]-1,2,4-oxadiazol-5-yl}butyl)piperidin-1-yl]sulfonyl}tetrahydro-2H-pyran-4-carboxamide] | 8880 nM | 63.8 nM | 273 nM | 0.51 nM | > 10000 nM |  |  |  |  |  |
| O=C(NO)C1(S(=O)(=O)N2CCC(c3cnc(CCC(F)(F)C(F)(F)F)cn3)CC2)CCOCC1 [Example A65, N-hydroxy-4-({4-[5-(3,3,4,4,4-pentafluorobutyl)pyrazin-2-yl]piperidin-1-yl}sulfonyl)tetrahydro-2H-pyran-4-carboxamide] | > 10000 nM | 2.15 nM | 0.19 nM | 0.47 nM | 3870 nM |  |  |  |  |  |
| COCCC(C(=O)NO)S(=O)(=O)N1CCC(c2ccc(CCC(F)(F)C(F)(F)F)cc2)CC1 (stereo not shown) [Example A66, N-hydroxy-4-methoxy-2-({4-[4-(3,3,4,4,4-pentafluorobutyl)phenyl]piperidin-1-yl}sulfonyl)butanamide] | > 10000 nM | 2.15 nM | 1.15 nM | 1.28 nM | 9640 nM |  |  |  |  |  |
| O=C(NO)C1(S(=O)(=O)N2CCC(c3cnc(OCCC4CC4)cn3)CC2)CCOCC1 [Example A67, 4-({4-[5-(2-cyclopropylethoxy)pyrazin-2-yl]piperidin-1-yl}sulfonyl)-N-hydroxytetrahydro-2H-pyran-4-carboxamide] | 4450 nM | 0.66 nM | 0.07 nM | 0.22 nM | 1350 nM |  |  |  |  |  |
| O=C(NO)C1(S(=O)(=O)N2CCC(c3cnc(CCC(F)(F)F)cn3)CC2)CCOCC1 [Example A72] |  |  |  |  |  | > 10000 nM | 3.8 nM | 1.4 nM | 2 nM | > 10000 nM |
| CC1(C)O[C@H]2C[C@@](C(=O)NO)(S(=O)(=O)N3CCC(c4ccc(CCC(F)(F)C(F)(F)F)cn4)CC3)C[C@H]2O1 [Example A73] |  |  |  |  |  | 716 nM | 0.22 nM | 0.16 nM | 0.09 nM | 140 nM |
| O=C(CCCCC1CCN(S(=O)(=O)C2(C(=O)NO)CCOCC2)CC1)N1CCc2ccccc2C1 [Example A74] |  |  |  |  |  | 512 nM | 21.8 nM | 65.8 nM | 0.18 nM | 7960 nM |
| O=C(/C=C/C=C/C1CCN(S(=O)(=O)C2(C(=O)NO)CCOCC2)CC1)N1CCc2ccccc2C1 [Example A75] |  |  |  |  |  | 6150 nM | 228 nM | 501 nM | 0.41 nM | > 10000 nM |
| O=C(/C=C/C=C/C1CCN(S(=O)(=O)C2(C(=O)NO)CCOCC2)CC1)N1CCN(c2ccccc2)CC1 [Example A76] |  |  |  |  |  | > 10000 nM | 356 nM | 1780 nM | 6.79 nM | > 10000 nM |
| CC(C)CN(C)C(=O)/C=C/C=C/C1CCN(S(=O)(=O)C2(C(=O)NO)CCOCC2)CC1 [Example A77] |  |  |  |  |  | 6200 nM | 1100 nM | 5910 nM | 6.79 nM | > 10000 nM |
| O=C(/C=C/C=C/C1CCN(S(=O)(=O)C2(C(=O)NO)CCOCC2)CC1)N1CCCCC1 [Example A78] |  |  |  |  |  | 2420 nM | 172 nM | 428 nM | 0.52 nM | > 10000 nM |
| CN(C(=O)/C=C/C=C/C1CCN(S(=O)(=O)C2(C(=O)NO)CCOCC2)CC1)C1CCCCC1 [Example A79] |  |  |  |  |  | > 10000 nM | 2450 nM | > 10000 nM | 5.94 nM | > 10000 nM |
| O=C(/C=C/C=C/C1CCN(S(=O)(=O)C2(C(=O)NO)CCOCC2)CC1)N1CCc2ccccc21 [Example A80] |  |  |  |  |  | 5450 nM | 239 nM | 1890 nM | 0.389 nM | > 10000 nM |
| O=C(/C=C/C=C/C1CCN(S(=O)(=O)C2(C(=O)NO)CCOCC2)CC1)N1C[C@H]2CCCC[C@H]2C1 [Example A81] |  |  |  |  |  | 4440 nM | 213 nM | 274 nM | 0.92 nM | > 10000 nM |
| O=C(/C=C/C=C/C1CCN(S(=O)(=O)C2(C(=O)NO)CCOCC2)CC1)N1Cc2ccccc2C1 [Example A82] |  |  |  |  |  | > 10000 nM | 1080 nM | 8280 nM | 0.901 nM | > 10000 nM |
| C#CCN(C)C(=O)CCCCC1CCN(S(=O)(=O)C2(C(=O)NO)CCOCC2)CC1 [Example A83] |  |  |  |  |  | 277 nM | 60 nM | 382 nM | 1.58 nM | > 10000 nM |
| O=C(NO)C(CC1CC1)(CC1CC1)S(=O)(=O)N1CCC(c2ccc(CCC(F)(F)F)cn2)CC1 [Example A84] |  |  |  |  |  | 9770 nM | 2.88 nM | 0.738 nM | 1.82 nM | 5390 nM |
| O=C(CCCCC1CCN(S(=O)(=O)C2(C(=O)NO)CCOCC2)CC1)N1CCOCC1 [Example A85] |  |  |  |  |  | 3420 nM | 82.3 nM | 553 nM | 3 nM | > 10000 nM |
| CNC(=O)CCCCC1CCN(S(=O)(=O)C2(C(=O)NO)CCOCC2)CC1 [Example A86] |  |  |  |  |  | 516 nM | 23.8 nM | 307 nM | 8.19 nM | 7540 nM |
| O=C(CCCCC1CCN(S(=O)(=O)C2(C(=O)NO)CCOCC2)CC1)N1Cc2ccccc2C1 [Example A87] |  |  |  |  |  | 927 nM | 17.2 nM | 107 nM | 0.01 nM | > 10000 nM |
| O=C(CCCCC1CCN(S(=O)(=O)C2(C(=O)NO)CCOCC2)CC1)N1CC2CCCCC2C1 (stereo not shown) [Example A88] |  |  |  |  |  | 2780 nM | 38 nM | 50.7 nM | 2.01 nM | 5360 nM |
| O=C(CCCCC1CCN(S(=O)(=O)C2(C(=O)NO)CCOCC2)CC1)Nc1ccc(OC(F)(F)F)cc1 [Example A89] |  |  |  |  |  | 1030 nM | 29.3 nM | 471 nM | 0.66 nM | 8570 nM |
| CC(C)CN(C)C(=O)CCCCC1CCN(S(=O)(=O)C2(C(=O)NO)CCOCC2)CC1 [Example A91] |  |  |  |  |  | 2580 nM | 781 nM | 3800 nM | 5.08 nM | > 10000 nM |
